Our source for the IC50 and Inhibition values is ChEMBL document CHEMBL1146729, “Rational design and synthesis of novel heparan sulfate mimetic compounds as antiadhesive agents” (Bioorg Med Chem Lett, 2004).

Each structure is given as a SMILES string.

Experiment [1] deals with Serine protease 1 (Homo sapiens, UniProt P07477). Put plainly: Inhibitory activity against trypsin at 100 uM; No inhibition.
In experiment [2] the target is T1, Heparanase (Homo sapiens, UniProt Q9Y251).
T1 sequence (Q9Y251 whole entry): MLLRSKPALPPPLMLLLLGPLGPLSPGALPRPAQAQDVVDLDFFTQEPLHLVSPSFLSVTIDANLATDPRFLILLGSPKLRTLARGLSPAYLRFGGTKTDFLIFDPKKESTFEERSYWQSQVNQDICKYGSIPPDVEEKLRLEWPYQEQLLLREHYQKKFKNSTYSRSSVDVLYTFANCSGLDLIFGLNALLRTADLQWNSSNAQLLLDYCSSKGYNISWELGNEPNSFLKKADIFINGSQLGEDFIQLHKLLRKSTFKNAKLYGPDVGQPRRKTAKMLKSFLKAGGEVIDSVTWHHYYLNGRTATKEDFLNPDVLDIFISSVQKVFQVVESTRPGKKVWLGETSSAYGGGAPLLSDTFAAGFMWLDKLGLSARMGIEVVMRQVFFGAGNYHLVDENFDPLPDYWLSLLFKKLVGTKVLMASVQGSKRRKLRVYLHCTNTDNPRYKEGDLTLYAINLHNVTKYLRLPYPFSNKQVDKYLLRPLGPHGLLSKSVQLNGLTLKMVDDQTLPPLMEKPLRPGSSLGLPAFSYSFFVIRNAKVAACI
The experiment in a line: Inhibitory concentration against heparanase; No inhibition.

Experiment [3] concerns HT-1080. Put plainly: Compound (100 uM) was tested for percent inhibition against adhesion of human HT1080 cells; No inhibition. The experiment is classed as functional, cell-based.
Experiment [4] concerns HeLa. The experiment in a line: Compound (100 uM) was tested for percent inhibition against adhesion of human HeLa cells; No inhibition. Type of experiment: functional, cell-based.
Experiment [5] addresses Coagulation factor X (Homo sapiens, UniProt P00742). The experiment in a line: Inhibition of Coagulation factor X at 100 uM; No inhibition.
In experiment [6] the target is Prothrombin (Homo sapiens, UniProt P00734). Put plainly: Compound (100 uM) was tested for inhibitory activity against thrombin; No inhibition.
Experiment [7] deals with T2, Collagenase ColA (Bacteria, UniProt P43153).
T2 sequence (P43153 whole entry): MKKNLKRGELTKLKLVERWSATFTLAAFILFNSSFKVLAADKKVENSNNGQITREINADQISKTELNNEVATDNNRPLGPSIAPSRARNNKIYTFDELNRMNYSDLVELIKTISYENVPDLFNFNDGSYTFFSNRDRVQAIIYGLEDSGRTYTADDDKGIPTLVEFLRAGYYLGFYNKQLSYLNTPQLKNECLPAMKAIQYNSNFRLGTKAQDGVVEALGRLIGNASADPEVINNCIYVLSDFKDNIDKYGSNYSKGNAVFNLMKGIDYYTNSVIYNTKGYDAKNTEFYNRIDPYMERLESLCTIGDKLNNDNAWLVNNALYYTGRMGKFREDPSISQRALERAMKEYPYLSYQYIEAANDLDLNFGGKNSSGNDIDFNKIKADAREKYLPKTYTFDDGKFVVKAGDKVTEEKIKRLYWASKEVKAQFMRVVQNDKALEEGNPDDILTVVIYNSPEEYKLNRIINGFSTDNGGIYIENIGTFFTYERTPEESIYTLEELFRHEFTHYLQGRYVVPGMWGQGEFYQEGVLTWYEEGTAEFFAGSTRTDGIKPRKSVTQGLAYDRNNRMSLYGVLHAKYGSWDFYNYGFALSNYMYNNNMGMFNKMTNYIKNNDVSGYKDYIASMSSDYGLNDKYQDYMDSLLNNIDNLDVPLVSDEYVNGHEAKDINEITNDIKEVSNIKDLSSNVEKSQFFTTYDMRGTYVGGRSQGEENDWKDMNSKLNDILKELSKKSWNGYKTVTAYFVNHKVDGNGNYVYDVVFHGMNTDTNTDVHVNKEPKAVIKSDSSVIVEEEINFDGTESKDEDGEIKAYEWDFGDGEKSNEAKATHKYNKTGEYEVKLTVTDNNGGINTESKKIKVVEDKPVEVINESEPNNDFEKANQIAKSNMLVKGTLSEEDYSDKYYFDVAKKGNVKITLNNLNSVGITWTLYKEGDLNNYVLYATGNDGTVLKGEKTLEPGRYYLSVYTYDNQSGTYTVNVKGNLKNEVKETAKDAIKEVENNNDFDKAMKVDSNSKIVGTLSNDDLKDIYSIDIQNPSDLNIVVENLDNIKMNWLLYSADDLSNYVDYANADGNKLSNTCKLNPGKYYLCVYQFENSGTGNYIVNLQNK
The experiment in a line: Inhibition of collagenase at 100 uM (No inhibition). Set-up: species or system Hathewaya histolytica.

In experiment [8] the target is 72 kDa type IV collagenase (Homo sapiens, UniProt P08253). Put plainly: Inhibition of matrix metalloprotease-2 at 100 uM (inactive).
The target of experiment [9] is Matrix metalloproteinase-9 (Homo sapiens, UniProt P14780). Put plainly: Inhibition of matrix metalloprotease-9 at 100 uM (inactive).
For experiment [10], the system named is HT-1080. The experiment in a line: Compound was tested for inhibitory activity against invasion of human HT1080 cells. Type of experiment: functional, cell-based.
In experiment [11] the target is T3, Integrin alpha-5/beta-1 (Homo sapiens, UniProt P05556+P08648). Put plainly: Inhibition of human A431 cell adhesion to fibronectin. Type of experiment: functional, cell-based, A-431.
Experiment [12] concerns the target T3, Integrin alpha-5/beta-1. Put plainly: Inhibition of human HT1080 cell adhesion to fibronectin. The experiment is classed as functional, cell-based, HT-1080.
In experiment [13] the test system is HT-1080. The experiment in a line: Compound was tested for inhibitory activity against growth of human HT1080 cells. Type of experiment: functional, cell-based.
For experiment [14], the system named is HT-1080. The experiment in a line: Compound was tested for inhibitory activity against adhesion of human Plastic/HT1080 cells. Type of experiment: functional, cell-based.
Experiment [15] deals with HT-1080. Put plainly: Compound was tested for inhibitory activity against adhesion of human laminin/HT1080 cells. The experiment is classed as functional, cell-based.
For experiment [16], the system named is HeLa. Put plainly: Compound (100 uM) was tested for percent inhibition against adhesion of human HeLa cells. Type of experiment: functional.
In experiment [17] the test system is HT-1080. Put plainly: Compound was tested for inhibitory activity against adhesion of human collagen IV/HT1080 cell. Type of experiment: functional, cell-based.
Experiment [18] has as its system HT-1080. The experiment in a line: Compound was tested for inhibitory activity against migration of human HT1080 cells. The experiment is classed as functional, cell-based.
For experiment [19], the system named is HT-1080. The experiment in a line: Compound (100 uM) was tested for percent inhibition against adhesion of human HT1080 cells. The experiment is classed as functional.
Experiment [20] concerns the target T3, Integrin alpha-5/beta-1. Put plainly: Inhibition of human HeLa cell adhesion to fibronectin. Type of experiment: functional, cell-based.
Experiment [21] deals with T1, Heparanase. Put plainly: Compound was tested for inhibitory activity against heparanase.

Chain of 72 kDa type IV collagenase (P08253 whole entry): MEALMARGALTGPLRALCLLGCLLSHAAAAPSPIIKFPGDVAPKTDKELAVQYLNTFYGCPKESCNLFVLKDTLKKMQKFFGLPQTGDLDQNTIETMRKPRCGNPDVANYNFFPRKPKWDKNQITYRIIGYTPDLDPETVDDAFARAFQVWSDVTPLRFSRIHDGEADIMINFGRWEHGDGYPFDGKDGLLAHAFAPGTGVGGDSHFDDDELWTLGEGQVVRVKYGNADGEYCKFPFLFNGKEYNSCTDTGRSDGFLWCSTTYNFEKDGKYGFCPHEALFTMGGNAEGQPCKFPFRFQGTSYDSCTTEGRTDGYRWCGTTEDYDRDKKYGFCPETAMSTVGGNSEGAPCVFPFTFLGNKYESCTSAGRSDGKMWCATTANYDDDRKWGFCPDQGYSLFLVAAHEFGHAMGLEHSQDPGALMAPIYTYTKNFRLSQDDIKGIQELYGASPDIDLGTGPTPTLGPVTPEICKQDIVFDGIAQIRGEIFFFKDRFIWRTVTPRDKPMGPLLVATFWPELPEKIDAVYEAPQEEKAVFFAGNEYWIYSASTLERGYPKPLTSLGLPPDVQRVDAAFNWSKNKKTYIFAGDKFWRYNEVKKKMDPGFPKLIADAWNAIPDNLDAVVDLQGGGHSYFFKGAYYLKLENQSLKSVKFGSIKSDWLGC
Chain of Coagulation factor X (P00742 41-179 limits assumed): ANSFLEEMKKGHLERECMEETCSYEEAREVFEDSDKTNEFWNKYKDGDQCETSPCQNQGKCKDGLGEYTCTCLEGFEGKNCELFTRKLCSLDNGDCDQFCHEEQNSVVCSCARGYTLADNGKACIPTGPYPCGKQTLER
Chain of Coagulation factor X (P00742 235-488 limits assumed): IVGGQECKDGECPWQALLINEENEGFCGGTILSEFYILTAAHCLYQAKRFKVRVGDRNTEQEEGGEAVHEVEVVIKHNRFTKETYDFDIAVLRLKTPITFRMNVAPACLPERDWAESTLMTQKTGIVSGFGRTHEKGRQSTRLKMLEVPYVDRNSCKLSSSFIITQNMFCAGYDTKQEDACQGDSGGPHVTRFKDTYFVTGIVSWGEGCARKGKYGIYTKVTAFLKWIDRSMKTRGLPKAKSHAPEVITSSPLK
Chain of Matrix metalloproteinase-9 (P14780 whole entry): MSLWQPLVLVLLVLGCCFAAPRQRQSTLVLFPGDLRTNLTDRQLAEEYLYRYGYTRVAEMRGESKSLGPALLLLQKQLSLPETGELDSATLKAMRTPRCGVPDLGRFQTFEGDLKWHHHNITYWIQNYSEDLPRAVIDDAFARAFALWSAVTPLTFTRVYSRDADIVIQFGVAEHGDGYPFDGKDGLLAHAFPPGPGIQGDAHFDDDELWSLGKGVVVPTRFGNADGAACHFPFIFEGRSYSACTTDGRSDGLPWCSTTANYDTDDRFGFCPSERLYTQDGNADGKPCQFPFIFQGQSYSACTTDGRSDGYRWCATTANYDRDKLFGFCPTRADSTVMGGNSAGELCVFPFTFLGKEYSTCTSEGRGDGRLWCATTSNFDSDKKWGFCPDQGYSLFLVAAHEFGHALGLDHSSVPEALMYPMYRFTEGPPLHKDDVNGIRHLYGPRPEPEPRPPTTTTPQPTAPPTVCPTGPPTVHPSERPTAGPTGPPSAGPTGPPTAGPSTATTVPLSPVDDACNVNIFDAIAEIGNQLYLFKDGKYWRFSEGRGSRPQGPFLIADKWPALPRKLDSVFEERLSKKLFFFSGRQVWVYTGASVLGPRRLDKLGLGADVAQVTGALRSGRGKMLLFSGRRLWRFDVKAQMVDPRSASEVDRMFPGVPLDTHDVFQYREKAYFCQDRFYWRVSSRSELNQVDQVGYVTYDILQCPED
T3 sequence (P05556 21-798 limits assumed): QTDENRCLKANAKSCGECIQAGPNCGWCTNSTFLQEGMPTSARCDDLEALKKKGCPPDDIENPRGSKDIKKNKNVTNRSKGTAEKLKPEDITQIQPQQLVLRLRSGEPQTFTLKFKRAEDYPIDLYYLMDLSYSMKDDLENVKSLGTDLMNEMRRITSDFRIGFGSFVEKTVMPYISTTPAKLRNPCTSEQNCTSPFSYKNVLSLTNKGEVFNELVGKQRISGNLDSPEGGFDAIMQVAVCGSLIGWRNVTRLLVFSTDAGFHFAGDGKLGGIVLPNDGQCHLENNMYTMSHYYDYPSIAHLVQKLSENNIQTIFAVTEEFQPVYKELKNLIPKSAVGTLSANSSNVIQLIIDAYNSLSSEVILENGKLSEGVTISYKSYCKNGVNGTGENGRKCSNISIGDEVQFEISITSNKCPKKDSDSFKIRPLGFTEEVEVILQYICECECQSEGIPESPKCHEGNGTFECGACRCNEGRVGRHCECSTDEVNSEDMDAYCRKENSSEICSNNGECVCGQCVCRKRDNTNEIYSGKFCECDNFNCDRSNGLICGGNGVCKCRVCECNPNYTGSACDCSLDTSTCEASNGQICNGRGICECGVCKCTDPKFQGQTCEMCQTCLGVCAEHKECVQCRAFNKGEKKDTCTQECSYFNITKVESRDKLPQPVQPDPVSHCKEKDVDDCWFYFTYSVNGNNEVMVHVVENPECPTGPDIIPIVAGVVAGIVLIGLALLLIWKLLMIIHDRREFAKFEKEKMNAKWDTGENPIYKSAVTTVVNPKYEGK
T3 sequence (P08648 42-894 limits assumed): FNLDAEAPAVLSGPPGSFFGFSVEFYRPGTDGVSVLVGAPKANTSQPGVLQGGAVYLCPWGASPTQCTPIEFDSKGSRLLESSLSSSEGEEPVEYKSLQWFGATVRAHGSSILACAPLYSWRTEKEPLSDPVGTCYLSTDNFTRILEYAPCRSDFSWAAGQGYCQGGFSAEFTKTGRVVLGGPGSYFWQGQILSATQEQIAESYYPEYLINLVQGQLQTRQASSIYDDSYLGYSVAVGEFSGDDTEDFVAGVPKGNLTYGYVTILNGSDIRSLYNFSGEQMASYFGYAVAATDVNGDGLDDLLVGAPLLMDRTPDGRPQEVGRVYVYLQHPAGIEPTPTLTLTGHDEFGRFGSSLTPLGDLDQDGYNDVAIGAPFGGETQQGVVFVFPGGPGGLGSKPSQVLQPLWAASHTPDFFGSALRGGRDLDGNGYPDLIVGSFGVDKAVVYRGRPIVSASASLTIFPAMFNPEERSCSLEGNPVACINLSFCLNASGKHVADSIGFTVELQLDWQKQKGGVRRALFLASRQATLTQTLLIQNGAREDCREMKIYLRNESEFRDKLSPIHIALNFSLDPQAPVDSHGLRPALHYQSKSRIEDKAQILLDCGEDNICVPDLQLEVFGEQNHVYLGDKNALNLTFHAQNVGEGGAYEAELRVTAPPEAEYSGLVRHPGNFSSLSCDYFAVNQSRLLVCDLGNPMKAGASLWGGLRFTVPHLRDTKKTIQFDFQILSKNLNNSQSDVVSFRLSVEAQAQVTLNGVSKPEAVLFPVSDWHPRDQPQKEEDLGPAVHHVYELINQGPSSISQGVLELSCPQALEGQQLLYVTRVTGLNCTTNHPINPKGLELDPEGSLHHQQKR
T3 sequence (P08648 895-1049 limits assumed): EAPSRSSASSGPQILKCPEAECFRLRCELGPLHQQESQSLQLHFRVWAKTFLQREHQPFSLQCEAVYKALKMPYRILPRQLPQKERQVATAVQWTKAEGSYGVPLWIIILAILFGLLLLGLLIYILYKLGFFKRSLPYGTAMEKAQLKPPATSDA
Chain of Serine protease 1 (P07477 whole entry): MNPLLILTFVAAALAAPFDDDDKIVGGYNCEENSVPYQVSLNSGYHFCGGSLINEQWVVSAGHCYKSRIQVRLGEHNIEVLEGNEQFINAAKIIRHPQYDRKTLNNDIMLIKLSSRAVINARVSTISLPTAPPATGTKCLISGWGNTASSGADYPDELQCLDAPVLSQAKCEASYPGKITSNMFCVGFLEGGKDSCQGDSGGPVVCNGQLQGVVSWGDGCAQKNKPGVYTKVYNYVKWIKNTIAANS

One may read the IC50 as the concentration at which inhibition is half-maximal. Low values mean inhibition by little substance, high ones a need for much substance. `CCOc1ccc(C(=O)c2ccccc2C(=O)O)cc1[N+](=O)[O-]`: the half-inhibitory concentration (IC50) entry in experiment [1], in [2], in experiment [3], in experiment [4], in [5] and in experiment [6] was “Not Active” throughout. Further, the IC50 result in experiment [7], in experiment [8] and in [9] was “Not Active” in each case.

Take `CCSc1ccc(C(=O)c2ccccc2C(=O)O)cc1[N+](=O)[O-]`: the IC50 entry in experiment [1], in experiment [2], in experiment [3], in experiment [4], in experiment [5] and in experiment [6] was “Not Active” throughout. Further, the 50% inhibitory concentration (IC50) entry in experiment [7], in experiment [8] and in experiment [9] was “Not Active” each time.

One may read the Inhibition as the change of the read-out against control, counted positive when it falls. Read a high Inhibition as a strong effect. As to `CC(=O)OC(=O)c1ccccc1C(=O)c1ccc(F)c([N+](=O)[O-])c1`, the IC50 entry in experiment [1] was “Not Active”; in [2] it was “Not Active”; in experiment [10], 2 µM; in experiment [11] it was 8 µM; in experiment [5], “Not Active”; in experiment [12], 7 µM. The IC50 was 10 µM in [13]; 5 µM in experiment [14]; “Not Active” in experiment [6]; 17 µM in [15]; “Not Active” in experiment [7]; 43 µM in [17]. Also, the IC50 is 2 µM in experiment [18], “Not Active” in [8], “Not Active” in experiment [9] and 16 µM in experiment [20]. For the same compound, the Inhibition in [16] was 85%; in experiment [19], 89%.

For the compound `O=C(O)c1ccccc1C(=O)c1ccc(Sc2ccccc2)c([N+](=O)[O-])c1`, the IC50 entry in experiment [1], in [2], in experiment [3], in [4], in [5] and in experiment [6] was “Not Active” throughout. Also, the IC50 was 300 µM in experiment [21], “Not Active” in experiment [7], “Not Active” in experiment [8] and “Not Active” in [9].

Take `O=C(O)c1ccccc1C(=O)c1ccc(NC2CCCCC2)c([N+](=O)[O-])c1`: the 50% inhibitory concentration (IC50) result in [1], in experiment [2], in experiment [3], in experiment [4], in [5] and in [6] was “Not Active” each time. The IC50 result in [7], in experiment [8] and in [9] was “Not Active” throughout.

As for `CCNc1ccc(C(=O)c2ccccc2C(=O)O)cc1[N+](=O)[O-]`, the IC50 result in [1], in [2], in experiment [3], in experiment [4], in experiment [5] and in [6] was “Not Active” throughout. Besides, the IC50 result in [7], in experiment [8] and in [9] was “Not Active” each time.

As to `O=C(O)c1ccc(Sc2ccc(C(=O)c3ccccc3C(=O)O)cc2[N+](=O)[O-])cc1`, the IC50 entry in experiment [1], in experiment [2], in [3], in [4], in [5] and in [6] was “Not Active” each time. The 50% inhibitory concentration (IC50) result in experiment [7], in [8] and in [9] was “Not Active” each time.

For `O=C(O)c1ccccc1C(=O)c1ccc(Oc2ccccc2)c([N+](=O)[O-])c1`, the IC50 result in experiment [1], in experiment [2], in experiment [3], in experiment [4], in experiment [5] and in experiment [6] was “Not Active” in each case. Moreover, the half-inhibitory concentration (IC50) result in experiment [7], in experiment [8] and in [9] was “Not Active” in each case.

For `O=C(O)c1ccccc1C(=O)c1ccc(F)cc1`, the half-inhibitory concentration (IC50) result in experiment [1], in [2], in experiment [3], in experiment [4], in experiment [5] and in experiment [6] was “Not Active” each time. Moreover, the IC50 result in experiment [7], in experiment [8] and in experiment [9] was “Not Active” throughout.

`CC(=O)OC(=O)c1ccccc1C(=O)c1ccc(Sc2ccccc2)c([N+](=O)[O-])c1`: the IC50 result in experiment [1], in [2], in [3], in [4], in experiment [5] and in experiment [6] was “Not Active” each time. Moreover, the IC50 entry in [7], in experiment [8] and in experiment [9] was “Not Active” in each case.

With `O=C(O)c1ccccc1C(=O)c1ccc(F)c([N+](=O)[O-])c1`, the IC50 result in experiment [1], in experiment [2], in experiment [3], in experiment [4], in [5] and in experiment [6] was “Not Active” in each case. The IC50 result in experiment [7], in [8] and in experiment [9] was “Not Active” throughout.

As for `O=C(O)CC(Sc1ccc(C(=O)c2ccccc2C(=O)O)cc1[N+](=O)[O-])C(=O)O` (stereo not drawn), the IC50 entry in experiment [1], in experiment [2], in experiment [3], in experiment [4], in experiment [5] and in [6] was “Not Active” throughout. In addition, the IC50 result in experiment [7], in experiment [8] and in [9] was “Not Active” throughout.
